Values joined by “and” are separate entries in the source; they are usually repeats but may differ in a detail not shown here. Identical values can stand only once. Like-named read-outs stand apart in the source and are kept apart here. Starred links: 1 amine or outer side, 2 acyl side, 3 side chain; linkers in the order of their positions; H or OH if unused. Non-standard residues stand in square brackets, D forms with d. Residues, ends and D or L forms follow the SMILES beside them. X3 = O=C([C@H](N[*:1])C12CC3CC(CC(C3)C1)C2)[*:2]; Phe(4-NH2) = Nc1ccc(C[C@H](N)C(=O)O)cc1; 1Nal = N[C@@H](Cc1cccc2ccccc12)C(=O)O; 2Nal = N[C@@H](Cc1ccc2ccccc2c1)C(=O)O; Phe(2-F) = N[C@@H](Cc1ccccc1F)C(=O)O; X2 = CCC(CC)[C@@H](N[*:1])C(=O)[*:2]; 2Thi = N[C@@H](Cc1cccs1)C(=O)O; Cha = N[C@@H](CC1CCCCC1)C(=O)O; Orn = NCCC[C@H](N)C(=O)O
How the values were obtained:
[1] = Measured lipophilicity (KO/W); type: physicochemical; conditions: Table 2, measured lipophilicity, change relative to Gly analog
Excerpt: Listed in Table 2 are KI values along with changes in volume (ΔV), measured lipophilicity (ΔKO/W), and calculated lipophilicity (ΔCLOGP). Some of the substrates containing a D-amino acid residue at P3 are rapidly hydrolyzed by tissue kallikrein. To overcome this problem, a new method was also used to determine KI (see Example 6).

[2] = target: human plasma kallikrein (HPK) (Homo sapiens, UniProt P03952); assay: Inhibition of human plasma kallikrein (KI); type: biochemical
Excerpt: (§1) Assay methods were based on the cleavage of chromogenic substrate S-2266 (D-Val-Leu-Arg-pNA) (Kabi; Charlotte, N.C.) by porcine pancreatic kallikrein (Sigma Chemical Company; St. Louis, Mo.) to yield an increase in absorbance at 405 nm. By changing the substrate and enzyme, the general method has been extended to measure the inhibition of human tissue kallikrein (HTK or human urinary kallikrein HUK), human plasma kallikrein (HPK), plasmin, and urokinase (UK). In all assays, the robot dilutes the inhibitor into a series of wells and adds substrate and buffer. Chromogenic reactions are started by the addition of enzyme. Changes in the absorbance at 405 nm in an array of wells were recorded. All manipulations were performed by the instrument from reservoirs containing substrate, inhibitor, diluent (water), buffer, or enzyme.

urokinase (UK) = target: T1, urokinase (UK) (Homo sapiens, UniProt P00749); assay: Inhibition of urokinase (KI); type: biochemical; conditions: Table 7; read-out: K1 UK
T1 construct: purchased Sigma Chemical Company (St. Louis, Mo.)
Excerpt: as §1

[3] = target: porcine pancreatic kallikrein (PPK) (Sus scrofa, UniProt P00752); assay: Inhibition of porcine pancreatic kallikrein, cleavage of chromogenic substrate S-2266 (KI); type: biochemical
[4] = target: T2, human urinary kallikrein (HUK) (Homo sapiens, UniProt P06870); assay: Inhibition of human urinary (tissue) kallikrein (KI); type: biochemical
T2 construct: Human urinary kallikrein (HUK) was purified from human urine; from tissue
Procedure: Human urinary kallikrein (HUK) was purified from human urine. Briefly, urine was subjected to ultrafiltration to concentrate the protein components which were applied to approtinin-CH-Sepharose affinity columns. Active fractions from these columns were next applied to Sephadex G-100 gel filtration and collected as fractions. The pH of each fraction was determined immediately upon elution, and the fraction was neutralized by addition of 2.0 ml of 2M Tris-HCL buffer, pH 8.0. Porcine pancreatic 24-kallikrein (PPK), at 50 units/mg protein; 1.0 units hydrolyses 1.0 μM BAEE (benzoyl -L-arginine ethyl ester) to N-a-benzoyl-L-arginine/minute at pH 8.7 at 25° C., was purchased from Sigma Chemical Company (St. Louis, Mo.). […] All other enzymes were purchased from Sigma Chemical Company (St. Louis, Mo.).
Dixon plots were used for data reduction and for calculation of […].
as §1

[5] = Table 7, in mM, read-out: K1 HPK
[6] = Table 7, in mM, read-out: K1 PPK
[7] = Table 4, Pro-X-Arg-Ser-Val-Gln, read-out: KI HPK
[8] = Table 4, Pro-X-Arg-Ser-Val-Gln, read-out: KI PPK
[9] = Table 4, Pro-X-Arg-Ser-Val-Gln, read-out: KI HUK

Chain of human plasma kallikrein (HPK) (P03952 20-638): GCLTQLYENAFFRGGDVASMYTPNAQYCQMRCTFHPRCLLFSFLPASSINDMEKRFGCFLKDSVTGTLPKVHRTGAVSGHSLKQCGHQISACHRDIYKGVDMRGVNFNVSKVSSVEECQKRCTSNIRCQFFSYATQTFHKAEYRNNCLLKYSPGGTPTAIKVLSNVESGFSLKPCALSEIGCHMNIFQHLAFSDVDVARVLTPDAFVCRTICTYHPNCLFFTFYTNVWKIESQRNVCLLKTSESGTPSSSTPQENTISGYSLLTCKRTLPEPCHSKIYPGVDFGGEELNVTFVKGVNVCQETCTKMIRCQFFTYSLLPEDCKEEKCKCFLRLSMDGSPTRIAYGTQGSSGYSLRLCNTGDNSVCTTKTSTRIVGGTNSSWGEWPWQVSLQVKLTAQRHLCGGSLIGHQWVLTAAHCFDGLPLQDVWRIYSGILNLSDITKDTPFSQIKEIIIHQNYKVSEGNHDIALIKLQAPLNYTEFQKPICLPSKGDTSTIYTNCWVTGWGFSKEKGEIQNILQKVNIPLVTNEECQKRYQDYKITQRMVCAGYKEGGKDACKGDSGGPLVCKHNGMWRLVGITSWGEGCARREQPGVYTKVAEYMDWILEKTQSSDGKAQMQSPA
Chain of porcine pancreatic kallikrein (PPK) (P00752 8-87 limits assumed): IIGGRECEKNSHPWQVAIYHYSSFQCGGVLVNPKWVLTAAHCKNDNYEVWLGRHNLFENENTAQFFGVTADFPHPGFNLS
Chain of porcine pancreatic kallikrein (PPK) (P00752 95-246 limits assumed): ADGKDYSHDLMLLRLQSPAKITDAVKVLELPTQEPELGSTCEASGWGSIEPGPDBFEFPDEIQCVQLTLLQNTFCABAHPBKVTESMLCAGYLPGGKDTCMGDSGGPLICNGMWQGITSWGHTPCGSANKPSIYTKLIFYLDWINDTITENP
T2 sequence (P06870 25-262): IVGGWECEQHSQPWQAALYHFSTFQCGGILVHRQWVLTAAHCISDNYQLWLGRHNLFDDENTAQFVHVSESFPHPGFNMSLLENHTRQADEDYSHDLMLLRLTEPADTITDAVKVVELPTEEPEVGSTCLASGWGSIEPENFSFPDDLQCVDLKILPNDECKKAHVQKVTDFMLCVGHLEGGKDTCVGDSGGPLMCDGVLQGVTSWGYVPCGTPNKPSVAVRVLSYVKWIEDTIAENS

CCC(CC)[C@@H](N)C(=O)N[C@@H](Cc1ccccc1)C(=O)N[C@@H](CCCNC(=N)N)C(=O)N[C@@H](CO)C(=O)N[C@H](C(=O)N[C@@H](CCC(N)=O)C(N)=O)C(C)C [KKI-87, [D-Ile(4Me)]-Phe-Arg-Ser-Val-Gln] (H-[X2]FRSVQ-NH2; N-terminus assumed)
ΔLog KO/W [1]: 1.11

CC(C)[C@H](NC(=O)[C@H](CO)NC(=O)[C@H](CCCN)NC(=O)[C@H](Cc1ccccc1)NC(=O)[C@@H]1CCCN1)C(=O)N[C@@H](CCC(N)=O)C(N)=O [KIDZ-3, Pro-Phe-Orn-Ser-Val-Gln] (H-PF[Orn]SVQ-NH2)
Ki [2, 5]: > 5 mM | Ki (urokinase (UK)): > 20000 µM | Ki [3, 6]: > 5 mM

CC(C)[C@H](NC(=O)[C@H](CO)NC(=O)[C@H](CCCNC(=N)N)NC(=O)[C@@H](NC(=O)[C@@H]1CCCN1)[C@@H](C)O)C(=O)N[C@@H](CCC(N)=O)C(N)=O [KIDZ-14, Pro-Thr-Arg-Ser-Val-Gln] (H-PTRSVQ-NH2)
Ki (urokinase (UK)): > 20000 µM | Ki ([3]; Table 7, read-out: K1 PPK): 0.4 to 0.8 mM

CC(C)[C@H](NC(=O)[C@H](CO)NC(=O)[C@H](CCCNC(=N)N)NC(=O)[C@H](Cc1ccc2ccccc2c1)NC(=O)[C@@H]1CCCN1)C(=O)N[C@@H](CCC(N)=O)C(N)=O [KCH-6] (H-P[2Nal]RSVQ-NH2)
Ki [2, 7]: 0.665 mM | Ki [3, 8]: 0.133 mM | Ki [4, 9]: 114 µM

CC(C)[C@H](NC(=O)[C@H](CO)NC(=O)[C@H](CCCNC(=N)N)NC(=O)[C@H](Cc1cccs1)NC(=O)[C@@H]1CCCN1)C(=O)N[C@@H](CCC(N)=O)C(N)=O [KCH-4] (H-P[2Thi]RSVQ-NH2)
Ki [2, 7]: 0.497 mM | Ki [3, 8]: 0.109 mM | Ki [4, 9]: 249 µM

CSCC[C@H](NC(=O)[C@H](Cc1ccccc1)NC(=O)[C@@H]1CCCN1)C(=O)N[C@@H](CO)C(=O)N[C@H](C(=O)N[C@@H](CCC(N)=O)C(N)=O)C(C)C [KIDZ-13, Pro-Phe-Met-Ser-Val-Gln] (H-PFMSVQ-NH2)
Ki [2, 5]: > 20 mM | Ki (urokinase (UK)): > 20000 µM | Ki [3, 6]: > 4 mM

N=C(N)NCCC[C@H](NC(=O)[C@H](CO)NC(=O)[C@H](CO)NC(=O)[C@H](CCCNC(=N)N)NC(=O)[C@H](Cc1ccccc1)NC(=O)[C@@H]1CCCN1)C(N)=O [Pro-Phe-Arg-Ser-Ser-Arg] (H-PFRSSR-NH2)
Ki ([2]; Table 6, HUK, read-out: KI HUK): 0.49 mM | Ki ([3]; Table 6, read-out: KI PPK): 0.06 mM | Ki ([4]; Table 6, first HUK column, read-out: KI HUK): 54 µM

CC(C)[C@H](NC(=O)[C@H](CO)NC(=O)[C@H](CCCNC(=N)N)NC(=O)[C@H](CC1CCCCC1)NC(=O)[C@@H]1CCCN1)C(=O)N[C@@H](CCC(N)=O)C(N)=O [KCH-10] (H-P[Cha]RSVQ-NH2)
Ki [2, 7]: 0.813 mM | Ki [3, 8]: 0.085 mM | Ki [4, 9]: 92 µM

CC(C)[C@H](NC(=O)[C@H](CO)NC(=O)[C@H](CCCNC(=N)N)NC(=O)[C@H](Cc1ccccc1)NC(=O)[C@H](N)C12CC3CC(CC(C3)C1)C2)C(=O)N[C@@H](CCC(N)=O)C(N)=O [KKI-88, [D-Adg]-Phe-Arg-Ser-Val-Gln] (H-[X3]FRSVQ-NH2; N-terminus assumed)
ΔLog KO/W [1]: 1.88

CC(C)[C@H](NC(=O)[C@H](CC(N)=O)NC(=O)[C@H](CCCNC(=N)N)NC(=O)[C@H](Cc1ccccc1)NC(=O)[C@@H]1CCCN1)C(=O)N[C@@H](CCC(N)=O)C(N)=O [Asn] (H-PFRNVQ-NH2)
Ki ([2]; Table 5, Pro-Phe-Arg-X-Val-Gln, read-out: KI HPK): 0.244 mM | Ki ([3]; Table 5, Pro-Phe-Arg-X-Val-Gln, read-out: KI PPK): 0.058 mM and 0.099 mM and 0.067 mM | Ki ([3]; Table 5, values in [] : Dithiothreitol, read-out: KI PPK): 0.033 mM | Ki ([4]; Table 5, Pro-Phe-Arg-X-Val-Gln, read-out: KI HUK): 99 µM

CC(C)[C@H](NC(=O)[C@H](CO)NC(=O)[C@H](CCCNC(=N)N)NC(=O)[C@H](Cc1ccccc1F)NC(=O)[C@@H]1CCCN1)C(=O)N[C@@H](CCC(N)=O)C(N)=O [KCH-1] (H-P[Phe(2-F)]RSVQ-NH2)
Ki [2, 7]: 0.472 mM | Ki [3, 8]: 0.124 mM | Ki [4, 9]: 151 µM

Pro-Map-Aph-Ser-Val-Gln [KIDZ-15]
Ki [2, 5]: > 20 mM | Ki (urokinase (UK)): > 20000 µM | selectivity for tissue kallikrein over plasma kallikrein or urokinase ([3]; Table 7): selectivity for tissue kallikrein over plasma kallikrein or urokinase | Ki ([3]; Table 7, read-out: K1 PPK): 0.11 mM

CC(C)[C@H](NC(=O)[C@H](CO)NC(=O)[C@H](CCCNC(=N)N)NC(=O)[C@H](Cc1cccc2ccccc12)NC(=O)[C@@H]1CCCN1)C(=O)N[C@@H](CCC(N)=O)C(N)=O [KCH-7] (H-P[1Nal]RSVQ-NH2)
Ki [2, 7]: 0.516 mM | Ki [3, 8]: 0.13 mM | Ki [4, 9]: 41 µM

CC(C)[C@H](NC(=O)[C@H](CO)NC(=O)[C@H](Cc1c[nH]cn1)NC(=O)[C@H](Cc1ccccc1)NC(=O)[C@@H]1CCCN1)C(=O)N[C@@H](CCC(N)=O)C(N)=O [KIDZ-12, Pro-Phe-His-Ser-Val-Gln] (H-PFHSVQ-NH2)
Ki [2, 5]: > 20 mM | Ki (urokinase (UK)): > 20000 µM | Ki [3, 6]: > 1 mM

CC(C)[C@H](NC(=O)[C@H](CO)NC(=O)[C@H](Cc1ccc(N)cc1)NC(=O)[C@H](Cc1ccccc1)NC(=O)[C@@H]1CCCN1)C(=O)N[C@@H](CCC(N)=O)C(N)=O [KIDZ-6, Pro-Phe-Aph-Ser-Val-Gla] (H-PF[Phe(4-NH2)]SVQ-NH2)
Ki [2, 5]: > 10 mM | Ki (urokinase (UK)): > 20000 µM | Ki ([3]; Table 7, read-out: K1 PPK): 0.036 mM | Ki ([3]; text b391, read-out: PPK KI): < 0.05 mM | Ki ([4]; Table 7, read-out: K1 HUK): 21 µM | Ki ([4]; text b391, read-out: HUK KI): < 50 µM

CC(C)[C@H](NC(=O)[C@H](CO)NC(=O)[C@H](CCCCN)NC(=O)[C@H](Cc1ccccc1)NC(=O)[C@@H]1CCCN1)C(=O)N[C@@H](CCC(N)=O)C(N)=O [KIDZ-2, Pro-Phe-Lys-Ser-Val-Gln] (H-PFKSVQ-NH2)
Ki ([2]; Table 7, read-out: K1 HPK): 2.5 mM | Ki (urokinase (UK)): > 20000 µM | Ki ([3]; Table 7, read-out: K1 PPK): 0.294 mM
